≈ marks a conversion by molar mass, not a printed value. Like-named read-outs stand apart in the source and are kept apart here.
Key:
[1] = molecular target: KRAS (WT)::SOS1 (Homo sapiens (Human), UniProt P01116, C118S); test: KRAS::SOS1 AlphaScreen binding assay, KRAS WT
Source text: This assay can be used to examine the potency with which compounds according to the invention binding to (mutated) KRAS inhibit the protein-protein interaction between SOS1 and (mutated) KRAS e.g., KRAS WT, KRAS G12C, KRAS G12D, KRAS G12V, KRAS G13D. […] Low IC50 values in this assay setting are indicative of strong inhibition of protein-protein interaction between SOS1 and KRAS:
These assays measure the inhibitory effect of compounds on KRAS mutant protein-protein interactions using the Alpha Screen technology by Perkin Elmer.
The following (mutant) enzyme forms of KRAS and interacting proteins are used in these assays at the given concentrations: • KRAS (G12D) 1-169, N-terminal 6His-tag, C-terminal avi-tag (Xtal BioStructures, Inc.); final assay concentration 10 nM and SOS1 564-1049, N-terminal 229 GST-tag, TEV cleavage site (Viva Biotech Ltd); final assay concentration 5 nM; • KRAS (G12C) 1-169, N-terminal 6His-tag for purification, cleaved off, C-terminal avi-tag, biotinylated, mutations: C51S, C80L, C118S (in house); final assay concentration 7.5 nM and SOS1 564-1049, N-terminal 229 GST-tag, TEV cleavage site (Viva Biotech Ltd); final assay concentration 5 nM; • KRAS (G12V) 1-169, N-terminal 6His-tag for purification, cleaved off, C-terminal avi-tag, biotinylated, TEV cleavage site, mutation: C118S, GDP loaded (in house); final assay concentration 10 nM and SOS1 564-1049, N-terminal 229 GST-tag, TEV cleavage site (Viva Biotech Ltd); final assay concentration 10 nM; • KRAS (G13D) 1-169, N-terminal 6His-tag for purification, cleaved off, C-terminal avi-tag, biotinylated, TEV cleavage site, mutation: C118S, GDP loaded (in house); final assay concentration 10 nM and SOS1 564-1049, N-terminal 229 GST-tag, TEV cleavage site (Viva Biotech Ltd); final assay concentration 10 nM; • KRAS (WT) 1-169, N-terminal 6His-tag for purification, cleaved off, C-terminal avi-tag, biotinylated, TEV cleavage site, mutation: C118S, GDP loaded (in house); final assay concentration 10 nM and SOS1 564-1049, N-terminal 229 GST-tag, TEV cleavage site (Viva Biotech Ltd); final assay concentration 10 nM.
Test compounds dissolved in DMSO are dispensed onto assay plates (Proxiplate 384 PLUS, white, PerkinElmer; 6008289) using an Access Labcyte Workstation with the Labcyte Echo 55×. For the chosen highest assay concentration of 100 μM, 150 nL of compound solution are transferred from a 10 mM DMSO compound stock solution. A series of eleven fivefold dilutions per compound are transferred to the assay plate, compound dilutions are tested in duplicates. DMSO are added as backfill to a total volume of 150 nL.
The assays run on a fully automated robotic system in a darkened room below 100 Lux. To 150 nl of compound dilution 10 μl of a mix including KRAS mutant protein, SOS1 (final assay concentrations see above) and GDP nucleotide (Sigma G7127; final assay concentration 10 μM) in assay buffer (1×PBS, 0.1% BSA, 0.05% Tween 20) are added into columns 1-24.
After 30 minutes incubation time 5 μl of Alpha Screen bead mix in assay buffer are added into columns 1-23. Bead mix consists of AlphaLISA Glutathione Acceptor Beads (PerkinElmer, Cat No AL109) and AlphaScreen Streptavidin Donor Beads (PerkinElmer Cat No 6760002) in assay buffer at a final assay concentration of 10 μg/ml each.
Plates are kept at room temperature in a darkened incubator. After an additional 60 minutes incubation time the signal is measured in a PerkinElmer Envision HTS Multilabel Reader using the AlphaScreen specs from PerkinElmer.
Each plate contains up to 16 wells of a negative control depending on the dilution procedure (platewise or serial) (DMSO instead of test compound; with KRAS mutant::SOS1 GDP mix and bead mix; column 23) and 16 wells of a positive control (DMSO instead of test compound; with KRAS mutant::SOS1 GDP mix w/o bead mix; column 24).
As internal control known inhibitors of KRAS mutant::SOS1 interaction can be measured on each compound plate. […]

[2] = tested on: MKN1 cells; test: MKN1 CTG proliferation assay (120 h) (gastric cancer, wt amplified); format: cell-based; settings: Homo sapiens
Procedure: MKN1 CTG Proliferation Assay (120 h) (Gastric Cancer, Wt Amplified)
MKN1 cells (JCRB0252) are dispensed into white 384-well plates, flat and white bottom (Corning Costar, PNr.: 3570) at a density of 400 cells per well in 50 μL RPMI 1640 (PAN-Biotech, PNr.: P04-18047)+10% FCS (HyClone, PNr.: SH30084.03) (assay 1) or into white 384-well plates, flat and white bottom (Perkin Elmer, 6007680) at a density of 500 cells per well in 40 μl RPMI (Gibco, PNr.: 21875034)+10% FCS (HyClone, PNr.: SH30084.03) (assay 2) or into black 384-well plates, flat and clear bottom (Greiner, PNr. 781091) at a density of 200 cells per well in 60 μl RPMI-1640 (Gibco #A10491)+10% FCS (HyClone, PNr.: SH30084.03)+PenStrep (Gibco, PNr.15140-122) (assay 3). […] Compounds (10 mM stock in DMSO) are added at logarithmic dose series using the HP Digital Dispenser D300 (Tecan) (assay 1+2) or the ECHO acoustic liquid handler system (Beckman Coulter) (assay 3), including DMSO controls and normalizing for added DMSO. Plates are incubated for 120 h, and cell viability is measured using CellTiter-Glo luminescent cell viability reagent (Promega product code G7570). Viability (stated as percent of control) is defined as relative luminescence units RLU of each well divided by the RLU of cells in DMSO controls. IC50 values are determined from viability measurements by non-linear regression using a four-parameter model.

[3] = Solubility measurement (DMSO solution method), McIlvaine buffer pH 4.5 or 6.8; format: physicochemical; settings: aqueous buffer, kinetic from dmso stock, DMSO stock diluted to 250 μM, 24 h shaking at ambient temperature
Outline: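 DMSO stock diluted into McIlvaine buffer, pH 4.5 or 6.8, to 250 µM final, shaken 24 h at ambient temperature. Precipitate removed by filtration; filtrate quantified by LC-UV against a fully dissolved reference in acetonitrile/water 1:1.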

[4] = MKN-1, assay 3, CTG 120 h, read-out: MKN1 (assay 3) IC50
[5] = McIlvaine buffer pH 4.5, read-out: solubility pH 4.5
[6] = McIlvaine buffer pH 6.8, read-out: solubility pH 6.8

KRAS (WT)::SOS1, sequence (P01116 other isoform, or with tags, fused parts or gaps C118S): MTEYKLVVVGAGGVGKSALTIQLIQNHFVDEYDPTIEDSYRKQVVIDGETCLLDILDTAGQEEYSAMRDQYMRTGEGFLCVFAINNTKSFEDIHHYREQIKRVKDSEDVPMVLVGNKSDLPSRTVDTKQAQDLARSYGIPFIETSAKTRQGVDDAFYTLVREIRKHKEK

SMILES | IC50 [1] [nM] | IC50 [2, 4] [nM] | solubility at 24 h [3, 5] [µg/mL] | solubility at 24 h [3, 6] [µg/mL] | IC50 ([2]; MKN-1, assay 2, CTG 120 h, read-out: MKN1 (assay 2) IC50) [nM]
C[C@H](Oc1cc(N2CCOC3(COC3)C2)nc(-c2noc3c2CCC[C@@]32CCCc3sc(N)c(C#N)c32)n1)[C@@H]1CCCN1C [II-77] | 4 | 18 | > 143 | > 134 | 
C[C@H](Oc1cc(-n2cc3c(n2)CCNC3)nc(-c2noc3c2CCC[C@@]32CCCc3sc(N)c(C#N)c32)n1)[C@@H]1CCCN1C [II-53] | 5 | 994 |  |  | 
C[C@H](Oc1cc(-c2cncnc2)nc(-c2noc3c2CCC[C@@]32CCCc3sc(N)c(C#N)c32)n1)[C@@H]1CCCN1C [II-82] | 36 | 712 | 102 (≈ 179 µM) | 72 (≈ 127 µM) | 
C[C@H](Oc1cc(-n2cncc3ccnc2-3)nc(-c2noc3c2CCC[C@@]32CCCc3sc(N)c(C#N)c32)n1)[C@@H]1CCCN1C [II-105] | 4 | 426 | 3 (≈ 4.94 µM) | < 1 | 
C[C@H](Oc1cc(N2CCNC3(CC3)C2)nc(-c2noc3c2CCC[C@@]32CCCc3sc(N)c(C#N)c32)n1)[C@@H]1CCCN1C [II-54] | 3 |  | > 134 | > 122 | 
C[C@H](Oc1cc(N2CCN(C)CC2)nc(-c2noc3c2CCC[C@@]32CCCc3sc(N)c(C#N)c32)n1)[C@@H]1CCCN1C [II-55] | 10 | 876 | > 172 | > 161 | 
C[C@H](Oc1cc(-c2ccncc2)nc(-c2noc3c2CCC[C@@]32CCCc3sc(N)c(C#N)c32)n1)[C@@H]1CCCN1C [II-78] | 7 | 533 | 41 (≈ 72.2 µM) | 3 (≈ 5.28 µM) | 
C[C@H](Oc1cc(-c2ccccn2)nc(-c2noc3c2CCC[C@@]32CCCc3sc(N)c(C#N)c32)n1)[C@@H]1CCCN1C [II-85] | 5 | 266 | 38 (≈ 66.9 µM) | 3 (≈ 5.28 µM) | 
C[C@H](Oc1cc(-n2ccnc2)nc(-c2noc3c2CCC[C@@]32CCCc3sc(N)c(C#N)c32)n1)[C@@H]1CCCN1C [II-69] | 3 |  | 108 (≈ 194 µM) | 76 (≈ 137 µM) | 
C[C@H](Oc1cc(-c2cnsc2)nc(-c2noc3c2CCC[C@@]32CCCc3sc(N)c(C#N)c32)n1)[C@@H]1CCCN1C [II-111] | 4 |  | 22 (≈ 38.3 µM) | < 1 | 
C[C@H](Oc1cc(N2CCNC3(CC3)C2)nc(-c2onc3c2CCC[C@@]32CCCc3sc(N)c(C#N)c32)n1)[C@@H]1CCCN1C [I-5] | 4 |  | > 138 | > 123 | 499
C[C@H](Oc1cc(N2CCNC2=O)nc(-c2noc3c2CCC[C@@]32CCCc3sc(N)c(C#N)c32)n1)[C@@H]1CCCN1C [II-64] | 2 |  | 40 (≈ 69.6 µM) | 8 (≈ 13.9 µM) | 
C[C@H](Oc1cc(-c2ccn(C)n2)nc(-c2noc3c2CCC[C@@]32CCCc3sc(N)c(C#N)c32)n1)[C@@H]1CCCN1C [II-96] | 5 |  | 107 (≈ 187 µM) | 2 (≈ 3.5 µM) | 
C[C@H](Oc1cc(-n2ccc(Br)n2)nc(-c2noc3c2CCC[C@@]32CCCc3sc(N)c(C#N)c32)n1)[C@@H]1CCCN1C [II-110] | 7 |  | 3 (≈ 4.72 µM) | < 1 | 
CNC(=O)c1cn(-c2cc(O[C@@H](C)[C@@H]3CCCN3C)nc(-c3noc4c3CCC[C@@]43CCCc4sc(N)c(C#N)c43)n2)nn1 [II-122] | 10 |  | 122 (≈ 198 µM) | 98 (≈ 159 µM) | 
C[C@H](Oc1cc(-c2cnn(C)n2)nc(-c2noc3c2CCC[C@@]32CCCc3sc(N)c(C#N)c32)n1)[C@@H]1CCCN1C [II-86] | 5 |  | 112 (≈ 196 µM) | 60 (≈ 105 µM) | 
C[C@H](Oc1cc(-c2ccc(N)nc2)nc(-c2noc3c2CCC[C@@]32CCCc3sc(N)c(C#N)c32)n1)[C@@H]1CCCN1C [II-101] | 8 |  | 88 (≈ 151 µM) | 2 (≈ 3.43 µM) | 
C[C@H](Oc1cc(-c2ccn3ncnc3c2)nc(-c2noc3c2CCC[C@@]32CCCc3sc(N)c(C#N)c32)n1)[C@@H]1CCCN1C [II-104] | 4 |  | 3 (≈ 4.94 µM) | < 1 | 
C[C@H](Oc1cc(N2CCc3cccnc32)nc(-c2noc3c2CCC[C@@]32CCCc3sc(N)c(C#N)c32)n1)[C@@H]1CCCN1C [II-90] | 33 |  |  |  | 
C[C@H](Oc1cc(-n2cc(-c3cccnc3)nn2)nc(-c2noc3c2CCC[C@@]32CCCc3sc(N)c(C#N)c32)n1)[C@@H]1CCCN1C [II-123] | 11 |  | < 1 | < 1 | 

From patent US20240174690A1, “ANNULATED 2-AMINO-3-CYANO THIOPHENES AND DERIVATIVES FOR THE TREATMENT OF CANCER” (BOEHRINGER INGELHEIM INTERNATIONAL GMBH, priority 2021, published 2024)
